What follows are molecules tested against GST-Bcl-2 (Homo sapiens, UniProt P10415) (assay: Time Resolved-Fluorescence Resonance Energy Transfer (TR-FRET) Bcl-2 binding assay). Settings: GST-Bcl-2 1 nM, F-Bak peptide probe 100 nM, Tb-anti-GST 1 nM; 3 hours at room temperature; Ki by Wang's equation.
Protocol: Determination of the utility of compounds having Formula (I) as binders to and inhibitors of anti-apoptotic Bcl-2 proteins was performed using the Time Resolved-Fluorescence Resonance Energy Transfer (TR-FRET) Assay. Tb-anti-GST antibody was purchased from Invitrogen (Catalog No. PV4216).
Representative compounds were serially diluted in dimethyl sulfoxide (DMSO) starting at 50 μM (2x starting concentration; 10% DMSO) and 10 μL were transferred into a 384-well plate. The samples are then mixed on a shaker for 1 minute and incubated for an additional 3 hours at room temperature. For each assay, the probe/antibody and protein/probe/antibody were included on each assay plate as negative and positive controls, respectively. Fluorescence was measured on the ENVISION plate reader (Perkin Elmer) using a 340/35 nm excitation filter and 520/525 (F-Bak peptide) and 495/510 nm (Tb-labeled […] antibody) emission filters. Inhibition constants (Ki) are shown in TABLE 2 below and were determined using Wang's equation (Wang Z.-X. An Exact Mathematical Expression For Describing Competitive Binding Of Two Different Ligands To A Protein Molecule. FEBS Lett. 1995, 360:111-4).
The inhibition constant (Ki) is the dissociation constant of an enzyme-inhibitor complex or a protein/small molecule complex, wherein the small molecule is inhibiting binding of one protein to another protein. So a large Ki value indicates a low binding affinity and a small Ki value indicates a high binding affinity.
The compounds are therefore expected to have utility in treatment of diseases during which anti-apoptotic Bcl-2 protein is expressed.

GST-Bcl-2, sequence (P10415 whole entry): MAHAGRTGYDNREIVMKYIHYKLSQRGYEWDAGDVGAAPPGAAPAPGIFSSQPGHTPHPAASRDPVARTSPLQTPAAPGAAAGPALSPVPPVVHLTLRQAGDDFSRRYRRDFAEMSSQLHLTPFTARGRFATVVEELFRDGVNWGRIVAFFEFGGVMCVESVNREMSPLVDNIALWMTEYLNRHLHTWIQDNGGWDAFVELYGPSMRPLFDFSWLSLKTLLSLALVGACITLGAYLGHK

Q: `O=C(NS(=O)(=O)c1ccc(Br)cc1)c1ccc(N2CCN(Cc3ccccc3-c3ccc(Cl)cc3)CC2)cc1` [Example 11, N-[(4-bromophenyl)sulfonyl]-4-{4-[(4′-chloro-1,1′-biphenyl-2-yl)methyl]piperazin-1-yl}benzamide] was tested. Which Ki did it give?
A: 208 nM

Q: For `O=C(NS(=O)(=O)c1cccc([N+](=O)[O-])c1)c1ccc(N2CCN(Cc3ccccc3-c3ccc(Cl)cc3)CC2)cc1[S+]([O-])c1ccccc1` (centres unmarked) [Example 21, 4-{4-[(4′-chloro-1,1′-biphenyl-2-yl)methyl]piperazin-1-yl}-N-[(3-nitrophenyl)sulfonyl]-2-(phenylsulfinyl)benzamide], which Ki is on record?
A: 87.3 nM

Q: With `CC1(C)CCC(CN2CCN(c3ccc(C(=O)NS(=O)(=O)c4cccc(Cl)c4)c(Oc4ccc5[nH]ccc5c4)c3)CC2)=C(c2ccc(Cl)cc2)C1` [Example 34, 4-(4-{[2-(4-chlorophenyl)-4,4-dimethylcyclohex-1-en-1-yl]methyl}piperazin-1-yl)-N-[(3-chlorophenyl)sulfonyl]-2-(1H-indol-5-yloxy)benzamide] as the molecule, how does the Ki read?
A: 5.14 nM

Q: For `CC1(C)CCC(CN2CCN(c3ccc(C(=O)NS(=O)(=O)c4cccc(C(F)(F)F)c4)c(Oc4ccc5[nH]ccc5c4)c3)CC2)=C(c2ccc(Cl)cc2)C1` [Example 33, 4-(4-{[2-(4-chlorophenyl)-4,4-dimethylcyclohex-1-en-1-yl]methyl}piperazin-1-yl)-2-(1H-indol-5-yloxy)-N-{[3-(trifluoromethyl)phenyl]sulfonyl}benzamide], which Ki is on record?
A: 4.09 nM

Q: `CC1(C)CCC(CN2CCN(c3ccc(C(=O)NS(=O)(=O)c4cccc(F)c4)c(Oc4ccc5[nH]ccc5c4)c3)CC2)=C(c2ccc(Cl)cc2)C1` [Example 35, 4-(4-{[2-(4-chlorophenyl)-4,4-dimethylcyclohex-1-en-1-yl]methyl}piperazin-1-yl)-N-[(3-fluorophenyl)sulfonyl]-2-(1H-indol-5-yloxy)benzamide] was tested. Which Ki did it give?
A: 8.84 nM

Q: For `CC1(C)CCC(CN2CCN(c3ccc(C(=O)NS(=O)(=O)c4ccccc4)c(Oc4ccc5[nH]ccc5c4)c3)CC2)=C(c2ccc(Cl)cc2)C1` [Example 31, 4-(4-{[2-(4-chlorophenyl)-4,4-dimethylcyclohex-1-en-1-yl]methyl}piperazin-1-yl)-2-(1H-indol-5-yloxy)-N-(phenylsulfonyl)benzamide], which Ki is on record?
A: 21.6 nM

Q: With `CC1(C)CCC(CN2CCN(c3ccc(C(=O)NS(=O)(=O)c4cccc(C#N)c4)c(Oc4ccc5[nH]ccc5c4)c3)CC2)=C(c2ccc(Cl)cc2)C1` [Example 32, 4-(4-{[2-(4-chlorophenyl)-4,4-dimethylcyclohex-1-en-1-yl]methyl}piperazin-1-yl)-N-[(3-cyanophenyl)sulfonyl]-2-(1H-indol-5-yloxy)benzamide] as the molecule, how does the Ki read?
A: 5.94 nM

Q: How did the Ki turn out when `O=C(NS(=O)(=O)c1cccc([N+](=O)[O-])c1)c1ccc(N2CCN(Cc3ccccc3-c3ccc(Cl)cc3)CC2)cc1` [Example 5, 4-{4-[(4′-chloro-1,1′-biphenyl-2-yl)methyl]piperazin-1-yl}-N-[(3-nitrophenyl)sulfonyl]benzamide] was run?
A: 185 nM

Q: `O=C(NS(=O)(=O)c1ccc(F)cc1)c1ccc(N2CCN(Cc3ccccc3-c3ccc(Cl)cc3)CC2)cc1Oc1ccccc1` [Example 24, 4-{4-[(4′-chloro-1,1′-biphenyl-2-yl)methyl]piperazin-1-yl}-N-[(4-fluorophenyl)sulfonyl]-2-phenoxybenzamide] was tested. Which Ki did it give?
A: 10.3 nM

Q: Which Ki does the source give for `CN(C)CCOc1cccc(-c2ccc(Cl)cc2)c1CN1CCN(c2ccc(C(=O)NS(=O)(=O)c3cccc([N+](=O)[O-])c3)c(Oc3cccc4[nH]ccc34)c2)CC1` [Example 28, 4-[4-({4′-chloro-3-[2-(dimethylamino)ethoxy]-1,1′-biphenyl-2-yl}methyl)piperazin-1-yl]-2-(1H-indol-4-yloxy)-N-[(3-nitrophenyl)sulfonyl]benzamide] here?
A: 0.125 nM

Q: For `CC1(C)CCC(CN2CCN(c3ccc(C(=O)NS(=O)(=O)c4cccc5cnccc45)c(Oc4ccc5[nH]ccc5c4)c3)CC2)=C(c2ccc(Cl)cc2)C1` [Example 37, 4-(4-{[2-(4-chlorophenyl)-4,4-dimethylcyclohex-1-en-1-yl]methyl}piperazin-1-yl)-2-(1H-indol-5-yloxy)-N-(isoquinolin-5-ylsulfonyl)benzamide], which Ki is on record?
A: 10.6 nM

Q: With `O=C(NS(=O)(=O)c1cccc([N+](=O)[O-])c1)c1ccc(N2CCN(Cc3ccccc3-c3ccc(Cl)cc3)CC2)cc1NCc1ccccc1` [Example 14, 2-(benzylamino)-4-{4-[(4′-chloro-1,1′-biphenyl-2-yl)methyl]piperazin-1-yl}-N-[(3-nitrophenyl)sulfonyl]benzamide] as the molecule, how does the Ki read?
A: 749 nM

Q: Which Ki does the source give for `CN(C)CCOc1cccc(-c2ccc(Cl)cc2)c1CN1CCN(c2ccc(C(=O)NS(=O)(=O)c3ccccc3)c(Oc3cccc4[nH]ccc34)c2)CC1` [Example 29, 4-[4-({4′-chloro-3-[2-(dimethylamino)ethoxy]-1,1′-biphenyl-2-yl}methyl)piperazin-1-yl]-2-(1H-indol-4-yloxy)-N-(phenylsulfonyl)benzamide] here?
A: 2.27 nM

Q: How did the Ki turn out when `O=C(NS(=O)(=O)c1ccc([N+](=O)[O-])cc1)c1ccc(N2CCN(Cc3ccccc3-c3ccc(Cl)cc3)CC2)cc1Oc1ccccc1` [Example 22, 4-{4-[(4′-chloro-1,1′-biphenyl-2-yl)methyl]piperazin-1-yl}-N-[(4-nitrophenyl)sulfonyl]-2-phenoxybenzamide] was run?
A: 17.3 nM

Q: Which Ki does the source give for `O=C(NS(=O)(=O)c1cccc([N+](=O)[O-])c1)c1ccc(N2CCN(Cc3ccccc3-c3ccc(Cl)cc3)CC2)cc1Sc1ccccc1` [Example 13, 4-{4-[(4′-chloro-1,1′-biphenyl-2-yl)methyl]piperazin-1-yl}-N-[(3-nitrophenyl)sulfonyl]-2-(phenylthio)benzamide] here?
A: 72.9 nM

Q: How did the Ki turn out when `CC1(C)CCC(CN2CCN(c3ccc(C(=O)NS(=O)(=O)c4ccc(Cl)c([N+](=O)[O-])c4)c(Oc4cccc5[nH]ncc45)c3)CC2)=C(c2ccc(Cl)cc2)C1` [Example 38, N-[(4-chloro-3-nitrophenyl)sulfonyl]-4-(4-{[2-(4-chlorophenyl)-4,4-dimethylcyclohex-1-en-1-yl]methyl}piperazin-1-yl)-2-(1H-indazol-4-yloxy)benzamide] was run?
A: 0.174 nM

Q: Which Ki does the source give for `O=C(NS(=O)(=O)c1ccccc1)c1ccc(N2CCN(Cc3ccccc3-c3ccc(Cl)cc3)CC2)cc1` [Example 6, 4-{4-[(4′-chloro-1,1′-biphenyl-2-yl)methyl]piperazin-1-yl}-N-(phenylsulfonyl)benzamide] here?
A: 212 nM

Q: How did the Ki turn out when `O=C(NS(=O)(=O)c1cccc([N+](=O)[O-])c1)c1ccc(N2CCN(Cc3ccccc3-c3ccc(Cl)cc3)CC2)cc1Oc1ccccc1` [Example 9, 4-{4-[(4′-chloro-1,1′-biphenyl-2-yl)methyl]piperazin-1-yl}-N-[(3-nitrophenyl)sulfonyl]-2-phenoxybenzamide] was run?
A: 26.5 nM

Q: For `O=C(NS(=O)(=O)c1cccc([N+](=O)[O-])c1)c1ccc(N2CCN(Cc3ccccc3-c3ccc(Cl)cc3)CC2)cc1CCc1ccccc1` [Example 18, 4-{4-[(4′-chloro-1,1′-biphenyl-2-yl)methyl]piperazin-1-yl}-N-[(3-nitrophenyl)sulfonyl]-2-(2-phenylethyl)benzamide], which Ki is on record?
A: 746 nM

Q: Which Ki does the source give for `O=C(NS(=O)(=O)c1ccc(F)cc1)c1ccc(N2CCN(Cc3ccccc3-c3ccc(Cl)cc3)CC2)cc1` [Example 19, 4-{4-[(4′-chloro-1,1′-biphenyl-2-yl)methyl]piperazin-1-yl}-N-[(4-fluorophenyl)sulfonyl]benzamide] here?
A: 403 nM

Reference: US8426422B2, “Apoptosis-inducing agents for the treatment of cancer and immune and autoimmune diseases” (Abbvie Inc., priority 2009, dated 2013)
